Measurements: patent US9687539B2, “CD4+ T survivin epitopes and uses thereof” (Commissariat a I'Energie Atomique, priority 2005, dated 2017)
Substitutions are numbered along the chain they refer to. Like-named read-outs stand apart in the source and are kept apart here. No end group written: not given here.

Assays:
[1] = biological target: HLA-DR3 (DRB1*0301) (Homo sapiens, UniProt P01903+P01911, A100K/A102G/A103R/A169T/F55Y/I96L/K41T/L162R/M171V/P40S/Q125H/Q178H/Q39Y/R42S/S66N/T106N/T262R/W38E/Y61H); assay: biochemical; details: competition with biotinylated tracer; 3 independent experiments; read-out: Binding activity DR3 (IC50)
[2] = biological target: HLA-DR13 (DRB1*1301) (Homo sapiens, UniProt P01903+P01911, A100E/A169T/K41T/L162R/M171V/P40S/Q125H/Q178H/Q39Y/Q99D/R42S/S66N/T262R/W38E/Y61H); assay: Competitive HLA II/peptide binding assay, HLA-DR13
[3] = biological target: HLA-DR15 (DRB1*1501) (Homo sapiens, UniProt P01903+P01911); assay: Competitive HLA II/peptide binding assay, HLA-DR15; details: competition with biotinylated tracer; 3 independent experiments
[4] = biological target: HLA-DRB3 (DRB3*0101) (Homo sapiens, UniProt P01903+P79483); assay: Competitive HLA II/peptide binding assay, HLA-DRB3; details: competition with biotinylated tracer; 3 independent experiments
[5] = biological target: HLA-DRB4 (DRB4*0101) (Homo sapiens, UniProt P01903+P13762, G164S); assay: Competitive HLA II/peptide binding assay, HLA-DRB4; details: competition with biotinylated tracer; 3 independent experiments
[6] = biological target: HLA-DRB5 (DRB5*0101) (Homo sapiens, UniProt P01903+Q30154); assay: Competitive HLA II/peptide binding assay, HLA-DRB5; details: competition with biotinylated tracer; 3 independent experiments
[7] = biological target: T1, HLA-DP401 (DP*0401) (Homo sapiens, UniProt P04440+P20036); assay: biochemical; details: competition with biotinylated tracer; 3 independent experiments; read-out: Binding activity DP401 (IC50)
T1 sequence (P04440 30-258): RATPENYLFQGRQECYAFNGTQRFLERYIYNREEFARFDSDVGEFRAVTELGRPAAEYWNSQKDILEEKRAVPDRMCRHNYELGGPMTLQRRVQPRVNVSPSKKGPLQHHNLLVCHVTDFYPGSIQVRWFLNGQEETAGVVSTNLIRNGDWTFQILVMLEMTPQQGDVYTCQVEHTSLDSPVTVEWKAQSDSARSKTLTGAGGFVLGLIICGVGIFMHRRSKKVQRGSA
T1 sequence (P20036 29-260): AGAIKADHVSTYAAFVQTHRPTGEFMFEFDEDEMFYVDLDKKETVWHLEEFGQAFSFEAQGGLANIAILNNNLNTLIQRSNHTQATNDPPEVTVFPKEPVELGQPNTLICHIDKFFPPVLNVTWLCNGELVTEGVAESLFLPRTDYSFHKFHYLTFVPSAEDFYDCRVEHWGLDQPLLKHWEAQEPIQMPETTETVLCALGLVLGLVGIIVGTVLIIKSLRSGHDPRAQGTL

[8] = biological target: T2, HLA-DP402 (DP*0402) (Homo sapiens, UniProt P04440+P20036, A65V/A84D/A85E/L207M); assay: biochemical; details: competition with biotinylated tracer; 3 independent experiments; read-out: Binding activity DP402 (IC50)
T2 sequence (P04440 30-258 A65V/A84D/A85E): T1 sequence (P04440 30-258) with A36V, A55D, A56E
T2 sequence (P20036 29-260): T1 sequence (P20036 29-260)

[9] = tested on: 12 predominant HLA II molecules; assay: Binding to the 12 predominant HLA II molecules, summary; set-up: species or system human; details: for No. of molecules fixed: number of the 12 predominant HLA II molecules bound (IC50 < 1000 nM)
Text: The assays for binding to HLA II molecules are competitive binding assays with immunoenzymatic visualization, as described in U.S. Pat. No. 6,649,166, Texier et al., J. Immunol., 2000, 164, 3177-3184 and Texier et al., Eur. J. Immunol., 2001, 31, 1837-1846, for the HLA-DR molecules, and in PCT international application WO 03/040299 and Castelli et al., J. Immunol., 2002, 169, 6928-6934, for the HLA-DP4 molecule. The use of these assays for measuring the binding activity of peptides derived from various antigens is illustrated in U.S. Pat. No. 6,649,166 and PCT international applications WO 02/090382, WO 03/040299 and WO 2004/014936.
The sensitivity of each assay is reflected by the IC50 values observed with the nonbiotinylated peptides which correspond to the tracers; the IC50 values of the tracers vary by a factor of less than three.

[10] = biological target: HLA-DR4 (DRB1*0401) (Homo sapiens, UniProt P01903+P01911, A100K/A169T/F76Y/I96L/K127E/L162R/M171V/N62H/P40V/Q125Y/R42H/S133A/S149N/S66Y/V115G/V209L/W38E); assay: Competitive HLA II/peptide binding assay, HLA-DR4; details: competition with biotinylated tracer; 3 independent experiments
[11] = biological target: HLA-DR7 (DRB1*0701) (Homo sapiens, UniProt P01903+P01911, A100R/A102G/A103Q/D57E/D86V/E43K/F76Y/K127E/L162R/M171V/P40G/Q125H/Q99D/R33Q/R42Y/R54Q/S133A/S66F/T210M/V115G/Y107V/Y59L/Y89S); assay: biochemical; details: competition with biotinylated tracer; 3 independent experiments; read-out: Binding activity DR7 (IC50)
[12] = competition with biotinylated tracer, 3 independent experiments, read-out: Binding activity DR13 (IC50)

Sequence	IC50 [1] [µM]	IC50 [2, 12] [nM]	IC50 [3] [µM]	IC50 [4] [µM]	IC50 [5] [µM]	IC50 [6] [µM]	IC50 [7] [µM]	IC50 [8] [µM]	No. of molecules fixed [9]	IC50 [10] [µM]	IC50 [11] [µM]	Binding specificity for HLA II molecules [9]	IC50 ([2]; DRB1*1301, tracer 100 nM, pH 4.5, 72 h, read-out: IC50 (nM) of nonbiotinylated tracer peptide) [nM]
FCFKELEGWEPDDDP [59-73, F C F K E L E G W E P D D D P]	> 100	> 100000	8	> 100	> 100	45	> 100	> 100	0	–	–	–	–
LKLDRERAKNKIAKE [102-116, L K L D R E R A K N K I A K E]	> 100	> 100000	> 100	> 100	> 100	0.018	> 100	> 100	1	> 100	–	–	–
LSVKKQFEELTLGEF [87-101, L S V K K Q F E E L T L G E F]	> 100	> 100000	–	–	–	6	–	–	2	–	–	–	–
MGAPTLPPAWQPFLK [1-15, M G A P T L P P A W Q P F L K]	> 100	> 100000	–	> 100	> 100	8	–	–	1	> 100	> 100	bind only to the HLA-DR11 molecule	–
TERVRLVTRHIYNREE [B1 21-36, reference compound]	–	–	–	–	–	–	–	–	–	–	–	–	800
